Experimental findings from patent US20240051946A1, “TARGETED PROTEIN DEGRADATION OF PARP14 FOR USE IN THERAPY” (Ribon Therapeutics, Inc., priority 2022, published 2024) are described below.

The structures appear in SMILES notation.

This assay deals with T1, catalytic domain of human PARP14 (residues 1611 to 1801) with NanoLuc tag (Homo sapiens, UniProt Q460N5).
T1 construct: expressed in transfected cells; host or cells: HEK-293T cells (ATCC), plasmid pRTX240 in pcDNA3.1(-)
T1 sequence (Q460N5 1611-1801): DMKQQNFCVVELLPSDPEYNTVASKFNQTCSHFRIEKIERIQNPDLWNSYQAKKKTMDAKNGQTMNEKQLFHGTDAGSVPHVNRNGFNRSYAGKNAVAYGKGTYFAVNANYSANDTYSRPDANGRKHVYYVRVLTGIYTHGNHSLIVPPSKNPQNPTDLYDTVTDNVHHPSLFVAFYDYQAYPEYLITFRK
Put plainly: NanoLuc assay for the degradation of PARP14. Format: cell-based. As to conditions: Assay A; NanoLuc-PARP14 overexpressed in HEK-293T cells; 2 hours at 37 degrees; luminescence. The method, then:
The catalytic domain of human PARP14 (residues 1611 to 1801, GenBank Accession No. NM_017554) was inserted into the pcDNA3.1(−) vector. The insert also contained a NanoLuc tag on the N terminus of the PARP14 protein.
Degradation of PARP14 protein was assessed using measurement of the NanoLuc tag as proxy for the PARP14 protein. PARP14 with NanoLuc tag was overexpressed in […] cells (ATCC) using the plasmid described in Table 1. Plasmid DNA was diluted in empty vector DNA then added to 1.163 mL of phenol red free OptiMEM (Thermo Fisher). Plasmid DNA concentrations used in each assay described in Table 1. The plasmid DNA was mixed with 78.5 μL of Fugene HD (Promega) and allowed to incubate 5 minutes.
Next, 1.125 mL were added to 10 million 293T cells in DMEM (Thermo Fisher) supplemented with 10% FBS (VWR) and 1× Glutamax (Gibco). The transfection was incubated for 24 hrs at 37 degrees in an incubator supplemented with 5% CO2. The cells were then trypsinized and brought up in phenol red free OptiMEM media. Transfected HEK-293T cells were diluted to […] and then added to assay plate (Corning 3574) using a Multidrop (Thermo Fisher) to add 40 μL per well of the 384 well plate, resulting in 5,000 cells per well. 40 nL of a dose response curve diluted in DMSO of each test compound was added to the cell plate using a Mosquito (TTP Labtech) and the plate was incubated at 37 degrees for 2 hours. Assay plate was brought to room temperature then 20 μL per well of NanoGlo (Promega) was added to the plate. Luminescence was measured on an Envision (Perkin Elmer).
The average DMSO was calculated from 32 wells containing 0.1% DMSO only in columns 12 and 24 of the assay plate. The % of DMSO values were calculated as described below: […]
The % of DMSO values were plotted as a function of compound concentration and the following 4-parameter fit was applied to derive the DC50 values:
where top, bottom, and Hill Coefficient are allowed to float. Y is the % of DMSO and X is the compound concentration.
DC50 data for the Example compounds is provided below in Table 2 (“+” is <0.1 μM; “++” is ≥0.1 μM and <1 μM; and “+++” is ≥1 μM).

`O=C1CCC(N2C(=O)c3cccc(N4CCN(CC5CCN(C(=O)CN6CCC(SCc7nc8cc(NC9CCCC9)cc(F)c8c(=O)[nH]7)CC6)CC5)CC4)c3C2=O)C(=O)N1` (stereo not shown) [Example 1, 4-(4-((1-(2-(4-(((7-(cyclopentylamino)-5-fluoro-4-oxo-3,4-dihydroquinazolin-2-yl)methyl)thio)piperidin-1-yl)acetyl)piperidin-4-yl)methyl)piperazin-1-yl)-2-(2,6-dioxopiperidin-3-yl)isoindoline-1,3-dione] gave a DC50 of less than 100 nM.

The molecule `O=C1CCC(N2C(=O)c3cccc(N4CCN(CC5CCN(C(=O)CN6CCC(SCc7nc8cc(OCC9CCOCC9)cc(F)c8c(=O)[nH]7)CC6)CC5)CC4)c3C2=O)C(=O)N1` (stereo not shown) [Example 2, 2-(2,6-dioxopiperidin-3-yl)-4-(4-((1-(2-(4-(((5-fluoro-4-oxo-7-((tetrahydro-2H-pyran-4-yl)methoxy)-3,4-dihydroquinazolin-2-yl)methyl)thio)piperidin-1-yl)acetyl)piperidin-4-yl)methyl)piperazin-1-yl)isoindoline-1,3-dione] returned a 50% degradation concentration (DC50) of less than 100 nM.

In turn, `O=C(CN1CCC(SCc2nc3cc(OCC4CCOCC4)cc(F)c3c(=O)[nH]2)CC1)NCCCCCCNC(=O)c1cccc(N2CCC(=O)NC2=O)c1` [Example 3, 3-(2,4-dioxotetrahydropyrimidin-1(2H)-yl)-N-(6-(2-(4-(((5-fluoro-4-oxo-7-((tetrahydro-2H-pyran-4-yl)methoxy)-3,4-dihydroquinazolin-2-yl)methyl)thio)piperidin-1-yl)acetamido)hexyl)benzamide] had a DC50 of less than 100 nM.

For `O=C(CN1CCC(SCc2nc3cc(OCC4CCOCC4)cc(F)c3c(=O)[nH]2)CC1)NCCCCNC(=O)c1cccc(N2CCC(=O)NC2=O)c1` [Example 4, 3-(2,4-dioxotetrahydropyrimidin-1(2H)-yl)-N-(4-(2-(4-(((5-fluoro-4-oxo-7-((tetrahydro-2H-pyran-4-yl)methoxy)-3,4-dihydroquinazolin-2-yl)methyl)thio)piperidin-1-yl)acetamido)butyl)benzamide], the DC50 fell in the range of 100 to 1000 nM.

`O=C(CN1CCC(SCc2nc3cc(OCC4CCOCC4)cc(F)c3c(=O)[nH]2)CC1)NCCCCCCN1CCC(c2ccc(NC3CCC(=O)NC3=O)cc2)CC1` (stereo not shown) [Example 5, N-(6-(4-(4-((2,6-dioxopiperidin-3-yl)amino)phenyl)piperidin-1-yl)hexyl)-2-(4-(((5-fluoro-4-oxo-7-((tetrahydro-2H-pyran-4-yl)methoxy)-3,4-dihydroquinazolin-2-yl)methyl)thio)piperidin-1-yl)acetamide] returned a DC50 of less than 100 nM.

In turn, `O=C(CN1CCC(SCc2nc3cc(OCC4CCOCC4)cc(F)c3c(=O)[nH]2)CC1)NCCCCCC(=O)N1CCC(c2ccc(NC3CCC(=O)NC3=O)cc2)CC1` (stereo not shown) [Example 6, N-(6-(4-(4-((2,6-dioxopiperidin-3-yl)amino)phenyl)piperidin-1-yl)-6-oxohexyl)-2-(4-(((5-fluoro-4-oxo-7-((tetrahydro-2H-pyran-4-yl)methoxy)-3,4-dihydroquinazolin-2-yl)methyl)thio)piperidin-1-yl)acetamide] gave a DC50 of less than 100 nM.

Regarding `O=C(CN1CCC(SCc2nc3cc(OCC4CCOCC4)cc(F)c3c(=O)[nH]2)CC1)NCCCCN1CCC(c2ccc(NC3CCC(=O)NC3=O)cc2)CC1` (stereo not shown) [Example 7, N-(4-(4-(4-((2,6-dioxopiperidin-3-yl)amino)phenyl)piperidin-1-yl)butyl)-2-(4-(((5-fluoro-4-oxo-7-((tetrahydro-2H-pyran-4-yl)methoxy)-3,4-dihydroquinazolin-2-yl)methyl)thio)piperidin-1-yl)acetamide], the DC50 is less than 100 nM.

`O=C(CN1CCC(SCc2nc3cc(OCC4CCOCC4)cc(F)c3c(=O)[nH]2)CC1)NCCCC(=O)N1CCC(c2ccc(NC3CCC(=O)NC3=O)cc2)CC1` (stereo not shown) [Example 8, N-(4-(4-(4-((2,6-dioxopiperidin-3-yl)amino)phenyl)piperidin-1-yl)-4-oxobutyl)-2-(4-(((5-fluoro-4-oxo-7-((tetrahydro-2H-pyran-4-yl)methoxy)-3,4-dihydroquinazolin-2-yl)methyl)thio)piperidin-1-yl)acetamide] returned a DC50 of less than 100 nM.

In turn, `O=C(CN1CCC(SCc2nc3cc(OCC4CCOCC4)cc(F)c3c(=O)[nH]2)CC1)NCCN1CCC(c2ccc(NC3CCC(=O)NC3=O)cc2)CC1` (stereo not shown) [Example 9, N-(2-(4-(4-((2,6-dioxopiperidin-3-yl)amino)phenyl)piperidin-1-yl)ethyl)-2-(4-(((5-fluoro-4-oxo-7-((tetrahydro-2H-pyran-4-yl)methoxy)-3,4-dihydroquinazolin-2-yl)methyl)thio)piperidin-1-yl)acetamide] had a DC50 of less than 100 nM.

`O=C(CN1CCC(SCc2nc3cc(OCC4CCOCC4)cc(F)c3c(=O)[nH]2)CC1)NCC(=O)N1CCC(c2ccc(NC3CCC(=O)NC3=O)cc2)CC1` (stereo not shown) [Example 10, N-(2-(4-(4-((2,6-dioxopiperidin-3-yl)amino)phenyl)piperidin-1-yl)-2-oxoethyl)-2-(4-(((5-fluoro-4-oxo-7-((tetrahydro-2H-pyran-4-yl)methoxy)-3,4-dihydroquinazolin-2-yl)methyl)thio)piperidin-1-yl)acetamide] returned a DC50 of less than 100 nM.

`O=C(CN1CCC(SCc2nc3cc(OCC4CCOCC4)cc(F)c3c(=O)[nH]2)CC1)NCC(=O)N1CCC(c2cccc(NC3CCC(=O)NC3=O)c2)CC1` (stereo not shown) [Example 11, N-(2-(4-(3-((2,6-dioxopiperidin-3-yl)amino)phenyl)piperidin-1-yl)-2-oxoethyl)-2-(4-(((5-fluoro-4-oxo-7-((tetrahydro-2H-pyran-4-yl)methoxy)-3,4-dihydroquinazolin-2-yl)methyl)thio)piperidin-1-yl)acetamide] yielded a DC50 of less than 100 nM.

Turning to `O=C(CN1CCC(SCc2nc3cc(OCC4CCOCC4)cc(F)c3c(=O)[nH]2)CC1)NCCCCCC(=O)N1CCC(c2cccc(NC3CCC(=O)NC3=O)c2)CC1` (stereo not shown) [Example 12, N-(6-(4-(3-((2,6-dioxopiperidin-3-yl)amino)phenyl)piperidin-1-yl)-6-oxohexyl)-2-(4-(((5-fluoro-4-oxo-7-((tetrahydro-2H-pyran-4-yl)methoxy)-3,4-dihydroquinazolin-2-yl)methyl)thio)piperidin-1-yl)acetamide], the DC50 was less than 100 nM.

As to `O=C(CN1CCC(SCc2nc3cc(OCC4CCOCC4)cc(F)c3c(=O)[nH]2)CC1)NCCCCN1CCC(c2cccc(NC3CCC(=O)NC3=O)c2)CC1` (stereo not shown) [Example 13, N-(4-(4-(3-((2,6-dioxopiperidin-3-yl)amino)phenyl)piperidin-1-yl)butyl)-2-(4-(((5-fluoro-4-oxo-7-((tetrahydro-2H-pyran-4-yl)methoxy)-3,4-dihydroquinazolin-2-yl)methyl)thio)piperidin-1-yl)acetamide], the DC50 was less than 100 nM.

With `O=C(CN1CCC(SCc2nc3cc(OCC4CCOCC4)cc(F)c3c(=O)[nH]2)CC1)NCCCC(=O)N1CCC(c2cccc(NC3CCC(=O)NC3=O)c2)CC1` (stereo not shown) [Example 14, N-(4-(4-(3-((2,6-dioxopiperidin-3-yl)amino)phenyl)piperidin-1-yl)-4-oxobutyl)-2-(4-(((5-fluoro-4-oxo-7-((tetrahydro-2H-pyran-4-yl)methoxy)-3,4-dihydroquinazolin-2-yl)methyl)thio)piperidin-1-yl)acetamide], the DC50 is less than 100 nM.

Turning to `O=C(CN1CCC(SCc2nc3cc(OCC4CCOCC4)cc(F)c3c(=O)[nH]2)CC1)NCCN1CCC(c2cccc(NC3CCC(=O)NC3=O)c2)CC1` (stereo not shown) [Example 15, N-(2-(4-(3-((2,6-dioxopiperidin-3-yl)amino)phenyl)piperidin-1-yl)ethyl)-2-(4-(((5-fluoro-4-oxo-7-((tetrahydro-2H-pyran-4-yl)methoxy)-3,4-dihydroquinazolin-2-yl)methyl)thio)piperidin-1-yl)acetamide], the DC50 is less than 100 nM.

For the molecule `O=C(CN1CCC(SCc2nc3cc(OCC4CCOCC4)cc(F)c3c(=O)[nH]2)CC1)NCCCCCCN1CCC(c2cccc(NC3CCC(=O)NC3=O)c2)CC1` (stereo not shown) [Example 16, N-(6-(4-(3-((2,6-dioxopiperidin-3-yl)amino)phenyl)piperidin-1-yl)hexyl)-2-(4-(((5-fluoro-4-oxo-7-((tetrahydro-2H-pyran-4-yl)methoxy)-3,4-dihydroquinazolin-2-yl)methyl)thio)piperidin-1-yl)acetamide], the DC50 is less than 100 nM.

Usually DC50 stands for the concentration at which degradation of the target reaches its halfway point.
